{"source": "patent US20080014186A1", "about": "“Hla-A24 or Hla-A2 Binding Peptides of Parathyroid Hormone-Related Protein” (GREEN PEPTIDE CO., LTD., priority 2004, published 2008)", "key": {"[1]": {"test_system": "PBMCs of HLA-A2^+ healthy donors and prostate cancer patients", "experiment": "Assay for peptide-specific CTLs in PBMCs (IFN-γ ELISA, peptide-pulsed T2 cells)", "format": "cell-based, human", "settings": "for INF-γ production: T2 cells"}, "[2]": {"test_system": "IgG in plasma of HLA-A2^+ healthy donors and prostate cancer patients", "experiment": "Peptide-specific IgG in plasma by ELISA (HLA-A2-binding PTHrP peptides)", "set-up": "species or system human", "settings": "for IgG reactive to the peptide in plasma (difference of OD): 1:100-diluted plasma", "description": "Peptide-specific IgG levels in the plasma were measured by ELISA, as previously reported. In brief, peptide (20 μg/well)-immobilized plates were blocked with Block Ace (Yukijirushi, Tokyo, Japan) and washed with 0.05% Tween20-PBS, after which 100 μl/well of plasma sample diluted with 0.05% Tween20-Block Ace was added to the plate. After 2 hours incubation at 37° C., the plates were washed and further incubated for 2 hours with a 1:1000-diluted rabbit anti-human IgG (γ-chain-specific) (DAKO, Glostrup, Denmark). The plates were washed, and then 100 μl of 1:100-diluted goat anti-rabbit IgG-conjugated horseradish peroxidase (EnVision, DAKO) was added to each well, and the plates were then incubated at room temperature for 40 min. After the plates were washed once, 100 μl/well of tetramethyl benzidine substrate solution (KPL, Guildford, UK) was added, and the reaction was stopped by the addition of 1 M phosphoric acid. The values are shown as optical density (OD) units/ml, and responses to the HIV peptide were subtracted. IgG reactive to a corresponding PTHrP peptide was judged to be positive when the difference of the OD in 1:100-diluted plasma exceeded 0.05. The results that IgG reactive to either the PTHrP102-111 or the […] peptide was detected in 8 of 10 healthy donors and in 7 of 10 prostate cancers are shown in Table 2 hereinafter.\nIn a similar way to Example 3, it was examined whether IgGs reactive to peptides of PTHrP 42-51 and PTHrP 59-67 could be detected in the plasma of 10 healthy donors and 10 cancer patients. The cut-off value at 1:100-diluted plasma was ODO.054."}, "[3]": {"settings": "HLA-A2^+ prostate cancer patients"}}}
{"sequence": "FLHHLIAEIH [PTHrP 59-68, previously reported PTHrP peptide generating CTLs from HLA-A*0201 healthy donors [17], reference compound]", "values": [{"measurement": "INF-γ production", "setting": "[1]; HLA-A2^+ healthy donor #1 (A0201)", "result": 23, "unit": "pg/mL"}, {"measurement": "INF-γ production", "setting": "[1]; HLA-A2^+ healthy donor #2 (A0201)", "result": 51, "unit": "pg/mL"}, {"measurement": "INF-γ production", "setting": "[1]; HLA-A2^+ healthy donor #3 (A0201)", "result": 0, "unit": "pg/mL"}, {"measurement": "INF-γ production", "setting": "[1]; HLA-A2^+ healthy donor #4 (A0201)", "result": 0, "unit": "pg/mL"}, {"measurement": "INF-γ production", "setting": "[1]; HLA-A2^+ healthy donor #5 (A0206)", "result": 0, "unit": "pg/mL"}, {"measurement": "INF-γ production", "setting": "[1]; HLA-A2^+ healthy donor #6 (A0206)", "result": 46, "unit": "pg/mL"}, {"measurement": "INF-γ production", "setting": "[1]; HLA-A2^+ healthy donor #7 (A0206)", "result": 0, "unit": "pg/mL"}, {"measurement": "INF-γ production", "setting": "[1]; HLA-A2^+ healthy donor #8 (A0206)", "result": 0, "unit": "pg/mL"}, {"measurement": "INF-γ production", "setting": "[1]; HLA-A2^+ healthy donor #9 (A0206)", "result": 0, "unit": "pg/mL"}, {"measurement": "INF-γ production", "setting": "[1]; HLA-A2^+ healthy donor #10 (A0207)", "result": 0, "unit": "pg/mL"}, {"measurement": "induced peptide-specific CTLs, number of donors", "setting": "[1]; HLA-A2^+ healthy donors", "result": "no peptide-specific CTLs were induced"}, {"measurement": "Total (donors with significant peptide-specific IFN-γ production / donors tested)", "setting": "[1]; HLA-A2^+ healthy donors, p < 0.05", "result": "0/10"}, {"measurement": "INF-γ production", "setting": "[1]; HLA-A2^+ prostate cancer patient #1 (A0206)", "result": 31, "unit": "pg/mL"}, {"measurement": "INF-γ production", "setting": "[1]; HLA-A2^+ prostate cancer patient #2 (A0210)", "result": 0, "unit": "pg/mL"}, {"measurement": "INF-γ production", "setting": "[1]; HLA-A2^+ prostate cancer patient #3 (A0210)", "result": 48, "unit": "pg/mL"}, {"measurement": "INF-γ production", "setting": "[1]; HLA-A2^+ prostate cancer patient #4 (A0206)", "result": 138, "unit": "pg/mL"}, {"measurement": "INF-γ production", "setting": "[1]; HLA-A2^+ prostate cancer patient #5 (A0206)", "result": 154, "unit": "pg/mL"}, {"measurement": "INF-γ production", "setting": "[1]; HLA-A2^+ prostate cancer patient #6 (A0207)", "result": 0, "unit": "pg/mL"}, {"measurement": "INF-γ production", "setting": "[1]; HLA-A2^+ prostate cancer patient #7 (A0206)", "result": 222, "unit": "pg/mL"}, {"measurement": "INF-γ production", "setting": "[1]; HLA-A2^+ prostate cancer patient #8 (A0206)", "result": 146, "unit": "pg/mL"}, {"measurement": "INF-γ production", "setting": "[1]; HLA-A2^+ prostate cancer patient #9 (A0201)", "result": 43, "unit": "pg/mL"}, {"measurement": "INF-γ production", "setting": "[1]; HLA-A2^+ prostate cancer patient #10 (A0201)", "result": 112, "unit": "pg/mL"}, {"measurement": "induced peptide-specific CTLs (peptide-specific IFN-γ production), number of patients", "setting": "[1]; [3]", "result": "5 of 10"}, {"measurement": "Total (patients with significant peptide-specific IFN-γ production / patients tested)", "setting": "[1]; HLA-A2^+ prostate cancer patients, p < 0.05", "result": "5/10"}, {"measurement": "IgG reactive to the peptide in plasma (difference of OD)", "setting": "[2]; HLA-A2^+ healthy donor #1", "result": 0.0855, "unit": "OD"}, {"measurement": "IgG reactive to the peptide in plasma (difference of OD)", "setting": "[2]; HLA-A2^+ healthy donor #2", "result": "— (IgG reactive to a corresponding peptide was judged to be positive when a difference of OD in a 1:100-diluted plasma was more than 0.054.)"}, {"measurement": "IgG reactive to the peptide in plasma (difference of OD)", "setting": "[2]; HLA-A2^+ healthy donor #3", "result": "— (IgG reactive to a corresponding peptide was judged to be positive when a difference of OD in a 1:100-diluted plasma was more than 0.054.)"}, {"measurement": "IgG reactive to the peptide in plasma (difference of OD)", "setting": "[2]; HLA-A2^+ healthy donor #4", "result": "— (IgG reactive to a corresponding peptide was judged to be positive when a difference of OD in a 1:100-diluted plasma was more than 0.054.)"}, {"measurement": "IgG reactive to the peptide in plasma (difference of OD)", "setting": "[2]; HLA-A2^+ healthy donor #5", "result": "— (IgG reactive to a corresponding peptide was judged to be positive when a difference of OD in a 1:100-diluted plasma was more than 0.054.)"}, {"measurement": "IgG reactive to the peptide in plasma (difference of OD)", "setting": "[2]; HLA-A2^+ healthy donor #6", "result": "— (IgG reactive to a corresponding peptide was judged to be positive when a difference of OD in a 1:100-diluted plasma was more than 0.054.)"}, {"measurement": "IgG reactive to the peptide in plasma (difference of OD)", "setting": "[2]; HLA-A2^+ healthy donor #7", "result": 0.119, "unit": "OD"}, {"measurement": "IgG reactive to the peptide in plasma (difference of OD)", "setting": "[2]; HLA-A2^+ healthy donor #8", "result": 0.167, "unit": "OD"}, {"measurement": "IgG reactive to the peptide in plasma (difference of OD)", "setting": "[2]; HLA-A2^+ healthy donor #9", "result": 0.065, "unit": "OD"}, {"measurement": "IgG reactive to the peptide in plasma (difference of OD)", "setting": "[2]; HLA-A2^+ healthy donor #10", "result": 0.112, "unit": "OD"}, {"measurement": "Total (IgG-positive donors / donors tested)", "setting": "[2]; HLA-A2^+ healthy donors", "result": "5/10"}, {"measurement": "IgG reactive to the peptide in plasma (difference of OD)", "setting": "[2]; HLA-A2^+ prostate cancer patient #1", "result": "— (IgG reactive to a corresponding peptide was judged to be positive when a difference of OD in a 1:100-diluted plasma was more than 0.054.)"}, {"measurement": "IgG reactive to the peptide in plasma (difference of OD)", "setting": "[2]; HLA-A2^+ prostate cancer patient #2", "result": "— (IgG reactive to a corresponding peptide was judged to be positive when a difference of OD in a 1:100-diluted plasma was more than 0.054.)"}, {"measurement": "IgG reactive to the peptide in plasma (difference of OD)", "setting": "[2]; HLA-A2^+ prostate cancer patient #3", "result": 0.0795, "unit": "OD"}, {"measurement": "IgG reactive to the peptide in plasma (difference of OD)", "setting": "[2]; HLA-A2^+ prostate cancer patient #4", "result": "— (IgG reactive to a corresponding peptide was judged to be positive when a difference of OD in a 1:100-diluted plasma was more than 0.054.)"}, {"measurement": "IgG reactive to the peptide in plasma (difference of OD)", "setting": "[2]; HLA-A2^+ prostate cancer patient #5", "result": "— (IgG reactive to a corresponding peptide was judged to be positive when a difference of OD in a 1:100-diluted plasma was more than 0.054.)"}, {"measurement": "IgG reactive to the peptide in plasma (difference of OD)", "setting": "[2]; HLA-A2^+ prostate cancer patient #6", "result": "— (IgG reactive to a corresponding peptide was judged to be positive when a difference of OD in a 1:100-diluted plasma was more than 0.054.)"}, {"measurement": "IgG reactive to the peptide in plasma (difference of OD)", "setting": "[2]; HLA-A2^+ prostate cancer patient #7", "result": "— (IgG reactive to a corresponding peptide was judged to be positive when a difference of OD in a 1:100-diluted plasma was more than 0.054.)"}, {"measurement": "IgG reactive to the peptide in plasma (difference of OD)", "setting": "[2]; HLA-A2^+ prostate cancer patient #8", "result": "— (IgG reactive to a corresponding peptide was judged to be positive when a difference of OD in a 1:100-diluted plasma was more than 0.054.)"}, {"measurement": "IgG reactive to the peptide in plasma (difference of OD)", "setting": "[2]; HLA-A2^+ prostate cancer patient #9", "result": "— (IgG reactive to a corresponding peptide was judged to be positive when a difference of OD in a 1:100-diluted plasma was more than 0.054.)"}, {"measurement": "IgG reactive to the peptide in plasma (difference of OD)", "setting": "[2]; HLA-A2^+ prostate cancer patient #10", "result": 0.1305, "unit": "OD"}, {"measurement": "Total (IgG-positive patients / patients tested)", "setting": "[2]; [3]", "result": "2/10"}]}
